The nature of the data set: Partition of avermectins between aqueous acetone and Duolite ES-863 resin (HPLC of supernatant before and after equilibration).
Where [1] appears, read: 21.4% acetone (vol), 4 ml supernatant, 1 g ES-863 resin, equilibrated for an hour.
Setting [2] is: 23.1% acetone (vol), 4 ml supernatant, 1 g ES-863 resin, equilibrated for an hour.
Setting [3] is: 25.0% acetone (vol), 4 ml supernatant, 1 g ES-863 resin, equilibrated for an hour.
Setting [4] is: 27.3% acetone (vol), 4 ml supernatant, 1 g ES-863 resin, equilibrated for an hour.
The mark [5] stands for this setting: 37.5% acetone (vol), 4 ml supernatant, 1 g ES-863 resin, equilibrated for an hour.
Setting [6] is: 42.9% acetone (vol), 4 ml supernatant, 1 g ES-863 resin, equilibrated for an hour.
The mark [7] stands for this setting: 50.0% acetone (vol), 4 ml supernatant, 1 g ES-863 resin, equilibrated for an hour.
[8] abbreviates: 60.0% acetone (vol), 4 ml supernatant, 1 g ES-863 resin, equilibrated for an hour.
[9] abbreviates: 68.0% acetone, ES-863 resin, similar procedures.
The mark [10] stands for this setting: 73.3% acetone, ES-863 resin, similar procedures.
Where [11] appears, read: 77.1% acetone, ES-863 resin, similar procedures.
Where [12] appears, read: 80.0% acetone, ES-863 resin, similar procedures.
[13] abbreviates: 82.2% acetone, ES-863 resin, similar procedures.

Where only a bound is given, the exact number is not on record here.

Procedure: After standing overnight they were centrifuged and 4 ml of each supernatant was transferred to tubes containing 1 g each of purified ES-863 resin. An aliquot was also taken for HPLC assay.
The samples containing the resin were equilibrated for an hour, then centrifuged. The supernatants were assayed by HPLC. A comparison of the assays before and after equilibration represent the partition between the solvent and the adsorbent.

`CCC(C)C1OC2(C=CC1C)CC1CC(CC=C(C)C(OC3CC(OC)C(OC4CC(OC)C(O)C(C)O4)C(C)O3)C(C)C=CC=C3COC4C(OC)C(C)=CC(C(=O)O1)C34O)O2` (stereo not drawn) [A1a]: the “% Remaining in Solution” value runs as follows: under setting [1], 4.40%; under setting [2], 6.75%; under setting [3], 7.09%; under setting [4], 8.42%; under setting [5], 3.60%; under setting [6], 4.39%. In addition, the “% Remaining in Solution” value is, setting by setting: under setting [7], 3.03%; under setting [8], 2.10%; under setting [9], 5.68%; under setting [10], 19.7%; under setting [11], 36.2%; under setting [12], 51.5%. The “% Remaining in Solution” value under setting [13] is listed as 136%.
In the case of `COC1CC(OC2C(C)OC(OC3C(C)=CCC4CC(CC5(CC(O)C(C)C(C(C)C)O5)O4)OC(=O)C4C=C(C)C(OC)C5OCC(=CC=CC3C)C45O)CC2OC)OC(C)C1O` (stereo not drawn) [A2b], the “% Remaining in Solution” value runs as follows: under setting [1], 2.75%; under setting [2], 3.89%; under setting [3], 5.38%; under setting [4], 3.73%; under setting [5], 2.70%; under setting [6], 1.71%. The “% Remaining in Solution” value runs as follows: under setting [7], 0.57%; under setting [8], 0.3%; under setting [9], 26.8%; under setting [10], 64.8%; under setting [11], 94.4%; under setting [12], 117%. Moreover, the “% Remaining in Solution” value under setting [13] was found to be 128%.
For the compound `COC1CC(OC2C(C)OC(OC3C(C)=CCC4CC(CC5(C=CC(C)C(C(C)C)O5)O4)OC(=O)C4C=C(C)C(OC)C5OCC(=CC=CC3C)C45O)CC2OC)OC(C)C1O` (stereo not drawn) [A1b], the “% Remaining in Solution” value runs as follows: under setting [1], 4.56%; under setting [2], 4.85%; under setting [3], 5.63%; under setting [4], 6.42%; under setting [5], 3.18%; under setting [6], 3.13%. Moreover, the “% Remaining in Solution” value reads like this: under setting [7], 2.42%; under setting [8], 1.69%; under setting [9], 10.6%; under setting [10], 68.1%; under setting [11], 111%; under setting [12], 145%. In addition, under setting [13], the “% Remaining in Solution” value stood at 79.0%.
`CCC(C)C1OC2(CC3CC(CC=C(C)C(OC4CC(OC)C(OC5CC(OC)C(O)C(C)O5)C(C)O4)C(C)C=CC=C4COC5C(O)C(C)=CC(C(=O)O3)C45O)O2)CC(O)C1C` (stereo not drawn) [B2a]: the “% Remaining in Solution” value under setting [1] is listed as 5.10%; the “% Remaining in Solution” value under setting [2] is reported as 6.09%; the “% Remaining in Solution” value under setting [3] worked out at 7.29%; the “% Remaining in Solution” value under setting [4] was 5.37%; the “% Remaining in Solution” value under setting [5] was found to be 3.21%; the “% Remaining in Solution” value under setting [6] is reported as 2.65%. Also, the “% Remaining in Solution” value by setting is: under setting [7], 1.36%; under setting [8], 4.95%; under setting [9], 27.8%; under setting [10], 60.4%; under setting [11], 82.1%; under setting [12], 99.8%. Further, the “% Remaining in Solution” value under setting [13] was 165%.
Turning to `COC1CC(OC2C(C)OC(OC3C(C)=CCC4CC(CC5(CC(O)C(C)C(C(C)C)O5)O4)OC(=O)C4C=C(C)C(O)C5OCC(=CC=CC3C)C45O)CC2OC)OC(C)C1O` (stereo not drawn) [B2b], the “% Remaining in Solution” value is recorded as below 2% under setting [1]; 4.80% under setting [2]; 5.08% under setting [3]; 2.34% under setting [4]; below 3% under setting [5]; 3.89% under setting [6]. Also, the “% Remaining in Solution” value is, setting by setting: under setting [7], 4.35%; under setting [8], 33.3%; under setting [13], 135%.
For the compound `CCC(C)C1OC2(CC3CC(CC=C(C)C(OC4CC(OC)C(OC5CC(OC)C(O)C(C)O5)C(C)O4)C(C)C=CC=C4COC5C(OC)C(C)=CC(C(=O)O3)C45O)O2)CC(O)C1C` (stereo not drawn) [A2a], the “% Remaining in Solution” value came to 5.36% under setting [1]; 6.54% under setting [2]; 7.86% under setting [3]; 6.99% under setting [4]; 4.19% under setting [5]; 3.76% under setting [6]. Moreover, the “% Remaining in Solution” value is, setting by setting: under setting [7], 2.12%; under setting [8], 2.72%; under setting [9], 15.2%; under setting [10], 42.1%; under setting [11], 65.7%; under setting [12], 86.7%. In addition, the “% Remaining in Solution” value under setting [13] is reported as 110%.
As for `COC1CC(OC2C(C)OC(OC3C(C)=CCC4CC(CC5(C=CC(C)C(C(C)C)O5)O4)OC(=O)C4C=C(C)C(O)C5OCC(=CC=CC3C)C45O)CC2OC)OC(C)C1O` (stereo not drawn) [B1b], the “% Remaining in Solution” value is given as 3.73% under setting [1]; 5.03% under setting [2]; 6.32% under setting [3]; 4.55% under setting [4]; 2.59% under setting [5]; 2.13% under setting [6]. Further, the “% Remaining in Solution” value under setting [7] came out at 0.90%; the “% Remaining in Solution” value under setting [8] is reported as 1.53%; the “% Remaining in Solution” value under setting [9] worked out at 20.4%; the “% Remaining in Solution” value under setting [10] is recorded as 5.15%; the “% Remaining in Solution” value under setting [11] came to 73.8%; the “% Remaining in Solution” value under setting [12] is listed as 94.2%. The “% Remaining in Solution” value under setting [13] was 123%.

Source of the values: patent US4399274A, “Isolation of non-ionic lipophilic materials on macroreticular polymeric absorbents” (priority 1981, dated 1983).
